In brackets after ≈: the same amount, converted by molar mass.
What was measured:
Assay type in all cases: functional
[1] = test system: Vesicular stomatitis virus; assay: Minimum inhibitory concentration required to reduce vesicular stomatis virus-induced cytopathogenicity in primary rabbit kidney cell cultures
[2] = test system: Human alphaherpesvirus 1; assay: Minimum inhibitory concentration required to reduce HSV-1 (McIntyre) strain-induced cytopathogenicity in primary rabbit kidney cell cultures
[3] = test system: Human alphaherpesvirus 2; assay: Minimum inhibitory concentration required to reduce HSV-2 (G) strain-induced cytopathogenicity in primary rabbit kidney cell cultures
[4] = test system: Human alphaherpesvirus 1; assay: Minimum inhibitory concentration required to reduce HSV-1 (KOS) strain-induced cytopathogenicity in primary rabbit kidney cell cultures
[5] = test system: Human alphaherpesvirus 2; assay: Minimum inhibitory concentration required to reduce HSV-2 (196) strain-induced cytopathogenicity in primary rabbit kidney cell cultures
[6] = test system: Human alphaherpesvirus 2; assay: Antiviral activity expressed as minimum HSV-2 (Lyons) strain-induced cytopathogenicity in primary rabbit kidney cell cultures
[7] = test system: Human alphaherpesvirus 1; assay: Minimum inhibitory concentration required to reduce HSV-1 (F) strain-induced cytopathogenicity in primary rabbit kidney cell cultures
[8] = test system: Human alphaherpesvirus 2; assay: Minimum inhibitory concentration required to reduce HSV-2 (Lyons) strain-induced cytopathogenicity in primary rabbit kidney cell cultures

| Compound | MIC [1] | MIC [2] | MIC [3] | MIC [4] | MIC [5] | MIC [6] | MIC [7] | MIC [8] |
| --- | --- | --- | --- | --- | --- | --- | --- | --- |
| O=c1[nH]c(=O)n([C@H]2C[C@H](O)[C@@H](CO)O2)cc1I [IDOXURIDINE] | > 200 µg/mL | 0.2 µg/mL (≈ 0.565 µM) | 0.4 µg/mL (≈ 1.13 µM) | 0.2 µg/mL (≈ 0.565 µM) | 0.4 µg/mL (≈ 1.13 µM) | 0.2 µg/mL (≈ 0.565 µM) | 0.2 µg/mL (≈ 0.565 µM) |  |
| O=c1[nH]c(=O)n([C@H]2C[C@H](O)[C@@H](CO)O2)cc1/C=C\Br | > 200 µg/mL | 1 µg/mL (≈ 3 µM) | 2 µg/mL (≈ 6 µM) | 4 µg/mL (≈ 12 µM) | 4 µg/mL (≈ 12 µM) |  | 2 µg/mL (≈ 6 µM) | 4 µg/mL (≈ 12 µM) |
| O=c1[nH]c(=O)n([C@H]2C[C@H](O)[C@@H](CO)O2)cc1/C=C/Br [BRIVUDINE] | > 200 µg/mL | 0.01 µg/mL (≈ 0.03 µM) | 0.7 µg/mL (≈ 2.1 µM) | 0.02 µg/mL (≈ 0.06 µM) | 0.4 µg/mL (≈ 1.2 µM) | 0.4 µg/mL (≈ 1.2 µM) | 0.02 µg/mL (≈ 0.06 µM) |  |

Reference: ChEMBL document CHEMBL1121647, “Synthesis and antiviral properties of (Z)-5-(2-bromovinyl)-2'-deoxyuridine” (1981)
